Active and inactive are the calls of the source. The rule behind the calls is not given here.
Experiments:
[1] = target: Human immunodeficiency virus type 1 reverse transcriptase (Human immunodeficiency virus 1) (UniProt Q72547); experiment: Inhibition of HIV1 reverse transcriptase at 100 ug/ml
[2] = test system: Human immunodeficiency virus 2; experiment: Inhibition of HIV2 ROD replication in MT4 cells; format: functional, organism-based
[3] = test system: Human immunodeficiency virus 1; experiment: Antiviral activity against HIV1 3B-induced cytopathic effect in MT4 cells assessed as inhibition of virus-induced syncytium formation; format: functional, organism-based; conditions: Human immunodeficiency virus 1, 3B
[4] = target: Human immunodeficiency virus type 1 reverse transcriptase (Human immunodeficiency virus 1) (UniProt Q72547); experiment: Inhibition of HIV1 reverse transcriptase at 10 ug/ml
[5] = Cytotoxicity against mock-infected MT4 cells assessed as reduction of cell viability; format: cell-based; conditions: human
[6] = Selectivity index, ratio of CC50 for mock-infected MT4 cells to EC50 for HIV1 3B; format: functional
[7] = Cytotoxicity against mock-infected CEM cells assessed as reduction of cell viability; format: cell-based; conditions: human, mock-infected CEM (CCRF-CEM) cells
[8] = test system: Human immunodeficiency virus 1; experiment: Antiviral activity against HIV1 3B-induced cytopathic effect in CEM cells assessed as inhibition of virus-induced syncytium formation; format: functional, organism-based; conditions: Human immunodeficiency virus 1, 3B, CCRF-CEM
[9] = Selectivity index, ratio of CC50 for mock-infected CEM cells to EC50 for HIV1 3B; format: functional, CCRF-CEM

Row | inhibition [1] | EC50 ([3]; read-out: EC50) | inhibition [4] | EC50 ([3]; read-out: Log EC50 (converted)) | EC50 [8] | Structure (SMILES) | Activity [2] | CC50 [5] | Ratio CC50/EC50 [6] | CC50 [7] | Ratio CC50/EC50 [9]
1 | 51.4% | > 195 µM | 31.6% | – | – | O=C1CSC(c2c(Cl)cccc2Cl)N1c1nc(-c2ccccc2)cc(-c2ccccc2)n1 (configuration not stated) | inactive | 193 µM | <1 | – | –
2 | 51.9% | 4.3 µM | 6.6% | 3.98 µM | 3.8 µM | Cc1cc(N2C(=O)CSC2c2c(Cl)cccc2Cl)nc(C)n1 (configuration not stated) | inactive | 41.3 µM | 10 | 42 µM | 11
3 | 100% | 0.4 µM | 96.3% | 0.398 µM | 0.3 µM | Cc1nc(N2C(=O)CSC2c2c(F)cccc2F)nc(C)c1C (configuration not stated) | inactive | 341 µM | 880 | > 373 µM | >1222
4 | 58.1% | 25.5 µM | 27.2% | 25.1 µM | 20.3 µM | Cc1cc(N2C(=O)CSC2c2c(F)cccc2F)nc(C)n1 (configuration not stated) | inactive | 272 µM | 11 | 272 µM | 13
5 | 100% | – | 94.8% | – | – | Cc1nc(N2C(=O)CSC2c2c(Cl)cccc2Cl)nc(C)c1C (configuration not stated) | – | – | – | – | –
6 | 20.6% | > 10.8 µM | 43.9% | – | – | O=C1CSC(c2c(F)cccc2Cl)N1c1nc(-c2ccccc2)cc(C(F)(F)F)n1 (configuration not stated) | inactive | 93.9 µM | 9 | – | –
7 | 38.9% | 5 µM | 32.3% | 5.01 µM | 4.4 µM | Cc1cc(C(F)(F)F)nc(N2C(=O)CSC2c2c(F)cccc2F)n1 (configuration not stated) | inactive | 125 µM | 25 | 140 µM | 32
8 | 66.7% | > 242 µM | 55.6% | – | – | O=C1CSC(c2c(F)cccc2Cl)N1c1nc(-c2ccccc2)cc(-c2ccccc2)n1 (configuration not stated) | inactive | > 201 µM | <1 | – | –
9 | 54.2% | 6.4 µM | 47.4% | 6.31 µM | 5.6 µM | Cc1cc(-c2ccccc2)nc(N2C(=O)CSC2c2c(F)cccc2F)n1 (configuration not stated) | inactive | 36.5 µM | 6 | 36.5 µM | 6
10 | – | 0.6 µM | – | – | – | Clc1cccc(Cl)c1C1SCc2nc3ccccc3n21 (configuration not stated) | – | 9.4 µM | 16 | – | –
11 | 51.5% | 6.1 µM | 18% | 6.31 µM | 5.8 µM | Cc1cc(-c2ccccc2)nc(N2C(=O)CSC2c2c(Cl)cccc2Cl)n1 (configuration not stated) | inactive | 35.3 µM | 6 | 35.3 µM | 6
12 | 79.9% | 3.9 µM | 32.7% | 3.98 µM | 3.9 µM | Cc1cc(-c2ccccc2)nc(N2C(=O)CSC2c2c(F)cccc2Cl)n1 (configuration not stated) | inactive | 146 µM | 38 | 172 µM | 44
13 | 43.7% | 1 µM | 32.9% | 1 µM | 0.8 µM | Cc1cc(C(F)(F)F)nc(N2C(=O)CSC2c2c(Cl)cccc2Cl)n1 (configuration not stated) | inactive | 46.4 µM | 46 | 46.7 µM | 62
14 | 39.4% | > 80.2 µM | 25.4% | – | – | O=C1CSC(c2c(Cl)cccc2Cl)N1c1nc(-c2ccccc2)cc(C(F)(F)F)n1 (configuration not stated) | inactive | 140 µM | <1 | – | –
15 | 6.6% | > 123 µM | 15.6% | – | – | O=C1CSC(c2c(F)cccc2F)N1c1nc(-c2ccccc2)cc(C(F)(F)F)n1 (configuration not stated) | inactive | 74.3 µM | <1 | – | –
16 | 100% | – | 99.3% | – | – | Cc1nc(N2C(=O)CSC2c2c(F)cccc2Cl)nc(C)c1C (configuration not stated) | – | – | – | – | –
17 | 48.6% | 4.3 µM | 9.3% | 3.98 µM | 4.1 µM | Cc1cc(N2C(=O)CSC2c2c(F)cccc2Cl)nc(C)n1 (configuration not stated) | inactive | 47.6 µM | 11 | 47.6 µM | 12
18 | 93.7% | 1.3 µM | 46.3% | 1.26 µM | 1.1 µM | Cc1cc(C(F)(F)F)nc(N2C(=O)CSC2c2c(F)cccc2Cl)n1 (configuration not stated) | inactive | 16.9 µM | 13 | 19.3 µM | 18
19 | 44% | > 167 µM | 30.1% | – | – | O=C1CSC(c2c(F)cccc2F)N1c1nc(-c2ccccc2)cc(-c2ccccc2)n1 (configuration not stated) | inactive | 177 µM | <1 | – | –

Row | Structure (SMILES) | inhibition [1] | EC50 ([3]; read-out: EC50) | inhibition [4] | EC50 ([3]; read-out: Log EC50 (converted)) | EC50 [8] | Activity [2] | CC50 [5] | Ratio CC50/EC50 [6] | CC50 [7] | Ratio CC50/EC50 [9]
20 | Fc1cccc(F)c1C1SCc2nc3ccccc3n21 (configuration not stated) [THIAZOLOBENZIMIDAZOLE] | – | 0.35 µM | – | – | 1.1 µM | – | – | 54.5 | – | 45

Source: ChEMBL document CHEMBL1143030, “Synthesis and evaluation of 2-(2,6-dihalophenyl)-3-pyrimidinyl-1,3-thiazolidin-4-one analogues as anti-HIV-1 agents” (Bioorg Med Chem, 2007)
